Test system: apolipoprotein B
Assay: Apolipoprotein B (apo B) inhibition test
Assay type: cell-based, human
Settings: Hep G2-cells; concentration needed to reduce apoB secretion to 50% of the control
Procedure: Cultured human liver cells (Hep G2-cells ) which synthesize and secrete low-density lipoproteins, were incubated overnight at 37° C. in a liquid medium containing radioactively labelled leucine. Thus radioactively labelled leucine was incorporated into the apolipoprotein B. The liquid medium was decanted and the apolipoprotein B was isolated by means of a double immunoprecipitation, i.e. first an apolipoprotein B-specific antibody (antibody1) was added to the liquid medium and subsequently a second antibody (antibody2) was added which binds specifically to the apoB-antibody1-complex. The thus formed apoB-antibody1-antibody2 complex precipitated and was isolated by centrifuge. Quantification of the amount of apolipoprotein B synthesized during the night resulted from measuring the radioactivity of the isolated complex. […] For each experiment the inhibition of apolipoprotein-B formation was expressed as [formula]
When more experiments were carried out for the same concentration, the median value of the inhibition calculated for these experiments was calculated. […]

For `CCC(C)n1ncn(-c2ccc(N3CCN(c4ccc(OC[C@H]5CO[C@](CSc6nncn6C)(c6ccc(Cl)cc6)O5)cc4)CC3)cc2)c1=O` (relative stereo) [Compound 40, cis-4-[4-[4-[4-[[2-(4-chlorophenyl)-2-[[(4-methyl-4H-1,2,4-triazol-3-yl)thio]methyl]-1,3-dioxolan-4-yl]methoxy]phenyl]-1-piperazinyl]phenyl]-2,4-dihydro-2-(1-methyl-propyl)-3H-1,2,4-triazol-3-one], the IC50 was 0.023 µM.

— patent US6342245B1, “Compositions of lipid lowering agents” (Janssen Pharmaceutica N.V., priority 1997, dated 2002)
